Results on two compounds are retold here after article PMC11251039, “Harnessing cholesterol uptake of malaria parasites for therapeutic applications” (EMBO Molecular Medicine, 2024).

Data set [1] has as its system asexual P. falciparum 3D7 wild-type parasites. Briefly: P. falciparum asexual growth inhibition assay (SYBR Safe DNA replication). The following applies: for P. falciparum asexual growth, percentage of control: replicate values, source data Fig. 2B; for IC50: Plasmodium falciparum, read-out: IC50, P. falciparum asexual growth inhibition. Type of data set: cell-based, Plasmodium falciparum. The essentials:
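Sorbitol-synchronised ring-stage cultures at 1% parasitaemia and 1% haematocrit were exposed to 2-fold compound dilutions at 37 °C under microaerophilic conditions for 24, 48 or 72 h. Growth was read by SYBR Safe fluorescence of freeze-thaw lysates, with 200 nM chloroquine or artesunate defining background.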

The test system of data set [2] is Toxoplasma gondii tachyzoites (RH strain). In words: Toxoplasma growth inhibition assay (tdTomato fluorescence, in HFF cells). Type of data set: cell-based. How it is done: Fluorescence was measured daily with a fluorescence microplate reader for one week, and the background fluorescence from the time 0 reading was subtracted from all other measurements. […]
Toxoplasma Growth Inhibition Assays:
Growth inhibition was investigated as described previously (26). Fluorescent Toxoplasma gondii parasites were inoculated into an optical bottom 96-well plate containing confluent human foreskin fibroblast (HFF) host cells at a density of 2,000 parasites/well, with a serial dilution of each compound, or culture media/DMSO (0.1% v/v) alone. Plates were measured daily with a FluoStar Optima fluorescence plate reader at 540 nm excitation and 590 nm emission for one week, and the background fluorescence from the time 0 reading was subtracted from all other measurements. […]

For data set [3], the system named is human foreskin fibroblasts (HFF). In words: Human foreskin fibroblast growth inhibition assay (SYBR Safe). It counts as cell-based. The following applies: 72 h; for IC50: Homo sapiens, Fibroblast, read-out: IC50, human fibroblast growth inhibition. How it is done:
HFF cell growth inhibition assays commenced by adding 5000 cells to each well of a 96-well plate. 10 µg/mL cycloheximide was used as a no-growth control. DNA replication (indicating growth) was measured at the specified time using SYBR Safe DNA Gel Stain (Invitrogen 33102) and a fluorescence microplate reader. […]
Human Foreskin Fibroblast Growth Inhibition Assays:
The HFF cell line was maintained under routine culture conditions in DMEM containing 3.7 g/L NaHCO3 supplemented with 10% v/v newborn calf serum (NCS), 50 units/mL penicillin, 50 μg/mL streptomycin, 10 μg/mL gentamicin, 0.25 μg/mL amphotericin B, and 0.2 mM L-glutamine at 37 °C in a humidified 5% CO2 incubator. […]
HFF cells were detached from a flask using 0.25% Trypsin with 0.2 g/L EDTA (Sigma T4049) and washed with culture media. Cells were incubated with a serial dilution of each compound, or media/DMSO alone. Cycloheximide at 10 µg/mL was used as a positive control to determine background fluorescence. Approximately 5 000 cells were seeded in each well. Plates were incubated at 37 °C for 72 hours (until reaching confluency) and the media was removed. Plates were transferred to a -18 °C freezer. Plates were thawed and SYBR Safe DNA Gel Stain (final concentration 1/10,000) diluted in lysis buffer (as above) was added. Fluorescence was read at 490 nm excitation/ 520 nm emission on a FLUOstar Optima fluorescence plate reader. […]

Molecules are shown by their SMILES. Values joined by “and” are separate entries in the source; they are usually repeats but may differ in a detail not shown here. Equal entries are not always repeated. Where two headings read alike, the source gives them in different places.

With `CC(C)OC(=O)CCC(=O)O[C@H]1CC[C@H]2[C@@H]3CC=C4C[C@@H](O)CC[C@]4(C)[C@H]3CC[C@]12C` [C-17-link], the “P. falciparum asexual growth, percentage of control” value is 108.2% and 98.65% and 104.4% and 77.73% and 107.4% and 72.24% and 105.4% and 89.91% and 101.4% in data set [1] (1.562500000 uM, 24 h, listed as HJB8a53); 87.28% and 79.93% and 102.9% and 88.97% and 110.9% and 91.2% and 98.89% and 92.59% and 99.55% in data set [1] (3.125000000 uM, 24 h, listed as HJB8a53); 91.48% and 91.92% and 90.32% and 56.7% and 84% and 91.24% and 89.81% and 87.22% and 88.93% in data set [1] (6.250000000 uM, 24 h, listed as HJB8a53); 92.85% and 68.5% and 79.1% and 86.73% and 62.26% and 77.95% and 77.18% and 79.4% and 77.07% in data set [1] (12.500000000 uM, 24 h, listed as HJB8a53); 63.84% and 71.98% and 51.99% and 71.68% and 75.89% and 90.82% and 60.89% and 60.24% and 75.04% in data set [1] (25.000000000 uM, 24 h, listed as HJB8a53); 21.83% and 36.37% and 18.23% and 26.53% and 42.29% and 44.3% and 28.27% and 41.39% and 35.03% in data set [1] (50.000000000 uM, 24 h, listed as HJB8a53). The “P. falciparum asexual growth, percentage of control” value in data set [1] (100.000000000 uM, 24 h, listed as HJB8a53) was 3.756% and 9.306% and -2.555% and -31.33% and 5.372% and 1.633% and -19.35% and 8.501% and 11.78%. Also, the IC50 in data set [1] (3D7, 24 h, 24 h, starting at ring stages) is 31.6 µM; in data set [1] (3D7, 48 h, 48 h), 40.2 µM; in data set [1] (3D7, 72 h, 72 h), 30.3 µM; in data set [2] (Toxoplasma gondii, HFF, 72 h, read-out: IC50, T. gondii tachyzoite growth inhibition), 24.2 µM; in data set [3], over 75 µM. Also, the “Inhibition of fibroblast growth” value in data set [3] (HFF) is given as “no notable inhibition”.

Turning to `COc1cc(NC(C)CCCNC(=O)CCC(=O)OC(C)C)c2ncccc2c1` (centres unmarked) [PQ-link], the “P. falciparum asexual growth, percentage of control” value in data set [1] (0.390625000 uM, 24 h, listed as BC9B) is 112.3% and 89.93% and 91.19% and 112.1% and 102.3% and 68.21% and 112.6% and 108.2% and 99.03%; in data set [1] (0.781250000 uM, 24 h, listed as BC9B) it was 111.4% and 122.1% and 101.9% and 105.4% and 82.4% and 103% and 111.6% and 99.14% and 89.9%; in data set [1] (1.562500000 uM, 24 h, listed as BC9B) it was 124.5% and 109.9% and 95.57% and 96.52% and 118.5% and 100.1% and 113.4% and 107.6% and 105.7%; in data set [1] (3.125000000 uM, 24 h, listed as BC9B), 111% and 101.9% and 103% and 119.5% and 108.6% and 102.2% and 109.1% and 102.4% and 93.98%; in data set [1] (6.250000000 uM, 24 h, listed as BC9B), 79.77% and 100.5% and 104.2% and 100.4% and 95.65% and 80.04% and 97.39% and 93.98% and 89.23%; in data set [1] (12.500000000 uM, 24 h, listed as BC9B), 91.36% and 89.64% and 70.76% and 87.57% and 76.11% and 68.83% and 96.23% and 85.41% and 71.02%. The “P. falciparum asexual growth, percentage of control” value was 68.25% and 69.29% and 40.14% and 53.66% and 42.59% and 27.83% and 74.48% and 57.35% and 79.45% in data set [1] (25.000000000 uM, 24 h, listed as BC9B); 54.3% and 2.851% and -9.844% and -3.605% and -29.04% and -23.19% and 22.95% and 7.441% and 8.158% in data set [1] (50.000000000 uM, 24 h, listed as BC9B). Further, the IC50 worked out at 21.9 µM in data set [1] (3D7, 48 h); 16.1 µM in data set [1] (3D7, 72 h); 25.2 µM in data set [1] (3D7, 24 h, starting at ring stages); 27.1 µM in data set [2] (Toxoplasma gondii, HFF, 72 h; read-out: IC50, T. gondii tachyzoite growth inhibition); 98.2 µM in data set [3] (HFF).
